Columns and labels:
ICR female mice = details: mouse, oral, single dose of 1,000 mg/kg
Method: 12 seven-week-old, specific pathogen-free ICR female mice, six female mice each weighing about 25 to 29 g and six male mice each weighing about 34 to 38 g, were kept under an environment of 22±1°C, 55±5 % relative humidity and 12L/12D photoperiod. Fodder(Cheiljedang Co., mouse and rat fodder) and water were sterilized and fed to the mice.
Neohesperidin dihydrochalcone purchased from Aldrich-Sigma Chemical Co. (St. Louis, MO, U.S.A) was dissolved in 0.5 % Tween 80 to a concentration of 100 mg/ml, and the solution was orally administered to the mice in an amount of 0.2 ml per 20 g of mouse body weight. […] Further, on the 10th day, the mice were sacrificed and the internal organs were visually examined.

HMG-CoA reductase = target: T1, HMG-CoA reductase (Rattus norvegicus, UniProt P51639); assay: HMG-CoA reductase activity assay (modified Hulcher's method) on liver microsomes of the diet-fed rats; format: biochemical; details: ex vivo: liver microsomes of rats fed 1 % cholesterol plus 0.05 % neohesperidin dihydrochalcone for six weeks, versus Control group
T1 construct: the supernatant was ultracentrifuged at 100,000xg for 60 minutes to obtain microsomal precipitates; from tissue; host or cells: rat liver microsomes
T1 sequence (P51639 1-887): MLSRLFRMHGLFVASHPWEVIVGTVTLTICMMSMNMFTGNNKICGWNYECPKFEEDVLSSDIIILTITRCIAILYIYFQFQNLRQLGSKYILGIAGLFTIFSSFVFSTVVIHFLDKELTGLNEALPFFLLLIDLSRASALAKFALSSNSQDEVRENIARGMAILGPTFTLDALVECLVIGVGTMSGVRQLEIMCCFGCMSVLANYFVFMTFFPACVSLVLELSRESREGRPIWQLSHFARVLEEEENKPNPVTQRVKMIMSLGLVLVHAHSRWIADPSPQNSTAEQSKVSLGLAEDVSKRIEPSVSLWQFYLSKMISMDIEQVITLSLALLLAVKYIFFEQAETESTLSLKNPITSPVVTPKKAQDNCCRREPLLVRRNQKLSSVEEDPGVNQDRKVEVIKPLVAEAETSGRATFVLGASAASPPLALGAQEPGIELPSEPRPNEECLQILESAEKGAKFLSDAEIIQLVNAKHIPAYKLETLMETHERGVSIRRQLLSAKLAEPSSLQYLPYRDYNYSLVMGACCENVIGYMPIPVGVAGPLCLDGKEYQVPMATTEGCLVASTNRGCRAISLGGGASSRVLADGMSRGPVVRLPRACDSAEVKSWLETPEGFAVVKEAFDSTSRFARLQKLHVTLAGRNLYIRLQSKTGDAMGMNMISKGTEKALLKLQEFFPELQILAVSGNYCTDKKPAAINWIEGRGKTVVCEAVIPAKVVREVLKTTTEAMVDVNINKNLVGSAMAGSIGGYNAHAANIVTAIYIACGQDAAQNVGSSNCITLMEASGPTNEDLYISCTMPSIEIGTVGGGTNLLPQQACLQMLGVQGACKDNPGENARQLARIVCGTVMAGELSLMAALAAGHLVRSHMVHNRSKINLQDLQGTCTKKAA
Method: In order to determine the activity of HMG-CoA reductase, Hulcher's method was employed after some modification (see J. Lipid Res., 14, 625-641(1973)). In this method, the concentration of the coenzyme-A(CoA-SH), which is produced when HMG-CoA is reduced to a mevalonate salt by the action of HMG-CoA reductase, is determined by spectroscopy and the activity of HMG-GoA reductase is calculated therefrom.
3 g of liver tissue taken from each group of rats of Example 2 was washed succesively with 100 ml of a cold-saline(0.15M NaCl) and 100ml of a cold buffer solution A(0.1M triethanolamine, HCl/0.2M EDTA/2mM dithiothreitol(DTT)). The cold buffer solution A was added to the liver tissue in an amount of 2 ml per 1 g of the liver tissue and the mixture was homogenized with a homogenizer. The homogenate was centrifuged at 15,000xg for 15 minutes, and then, the supernatant was ultracentrifuged at 100,000xg for 60 minutes to obtain microsomal precipitates. […]
Then, the reactant was mixed with 20µl of DTNB buffer solution(3mM DTNH/0.1M triethanolamine/0.2M EDTA, pH 7.4) and the absorbance of the mixture was determined at 412nm to calculate the amount of CoA-SH(activity of HMG-CoA reductase).
The extent of inhibition of HMG-CoA reductase activity by neohesperidin dihydrochalcone was calculated based on the above result.

Human = assay: Effect of administration to a human on plasma lipid metabolism; format: in vivo; details: two men in their mid-fifties, daily oral dose of 10mg/kg, capsule, 60 days, before versus after
Method: Two men in their mid-fifties were administered with a daily oral dose of 10mg/kg of neohesperidin dihydrochalcone in the form of a capsule for 60 days. The plasma cholesterol and neutral lipid(triglyceride) contents were determined before and after the administration.

## COc1ccc(CCC(=O)c2c(O)cc(O[C@@H]3O[C@H](CO)[C@@H](O)[C@H](O)[C@H]3O[C@@H]3O[C@@H](C)[C@H](O)[C@@H](O)[C@H]3O)cc2O)cc1O [Neohesperidin dihydrochalcone]
ICR female mice
  survival at day 10: All the mice were alive
ICR female mice; autopsy on the 10th day
  pathological abnormality at autopsy: did not develop any pathological abnormality
HMG-CoA reductase
  Inhibition of HMG-CoA reductase activity (%): 30%
Human
  plasma cholesterol content reduced: 20%
  plasma neutral lipid(triglyceride) content reduced: 15%

Source: patent publication EP1113726B1, “USE OF NEOHESPERIDIN DIHYDROCHALCONE FOR THE MANUFACTURE OF A MEDICAMENT FOR PREVENTING OR TREATING ELEVATED BLOOD LIPID LEVEL-RELATED DISEASES” (Korea Research Institute of Bioscience and Biotechnology, priority 1998, dated 2000)
